Test system: not listed separately
Assay: Inhibition of [3H]NE reuptake at NET in rat brain synaptosomes
Type: subcellular
In the case of `CC(C)[C@@]1(O)C=C2[C@H](O)C[C@H]3[C@](C)(C(=O)O)CCC[C@]3(C)[C@@]2(O)CC1` [AQUILARABIETIC ACID A], the IC50 is reported as 910 nM.

Organism: Rattus norvegicus
Assay: Inhibition of [3H]NE reuptake at NET in rat brain synaptosomes at 10 uM
Type: subcellular
In the case of `CC(C)[C@@]12CC[C@H]3C(=C[C@@H]4OC(=O)[C@]5(C)CCC[C@@]3(C)[C@@H]45)[C@@H]1O2`, the inhibition is reported as 8.1%.
`CNCC[C@H](Oc1cccc2ccccc12)c1cccs1` gave an inhibition of 81.4%.
Work on `C[C@]12CCC[C@@](C)(C(=O)O)[C@@H]1CC(=O)C1CC(=O)CC[C@@H]12` (some centres undefined) yielded an inhibition of 18.9%.
Work on `C=C(C)c1ccc2c(c1)[C@H](O)C[C@H]1[C@](C)(C(=O)O)CCC[C@]21C` yielded an inhibition of 73.8%.
With `CCO[C@H]1C[C@H]2C(=CC[C@@H]3[C@]2(C)CCC[C@@]3(C)C(=O)O)C=C1C(C)C` the inhibition was 13.4%.
With `CC(C)[C@]1(O)C=C2[C@H](O)C[C@@H]3[C@](C)(CCC[C@@]3(C)C(=O)O)[C@H]2C[C@H]1O` the inhibition was 34.4%.
In the case of `CC(C)[C@@]1(O)C=C2[C@H](O)C[C@@H]3[C@](C)(CCC[C@@]3(C)C(=O)O)[C@H]2C[C@@H]1O` [AQUILARABIETIC ACID B], the inhibition is reported as 39.1%.
In the case of `CC(C)[C@]1(O)CC[C@H]2C(=C[C@H](O)[C@@H]3[C@]2(C)CCC[C@@]3(C)C(=O)O)[C@H]1O`, the inhibition is reported as 37.2%.
`CC(C)[C@@]12C=C3[C@H](O)C[C@@H]4[C@](C)(CCC[C@@]4(C)C(=O)O)[C@H]3C[C@@H]1OC(C)(C)O2` gave an inhibition of 37.6%.
`CC(C)[C@@]1(O)C=C2[C@H](O)C[C@H]3[C@](C)(C(=O)O)CCC[C@]3(C)[C@@]2(O)CC1` [AQUILARABIETIC ACID A] showed an inhibition of 81.8%.
In the case of `CC(C)(O)[C@]1(O)CCC2=C(C(=O)C[C@H]3[C@](C)(C(=O)O)CCC[C@]23C)[C@H]1O`, the inhibition is reported as 0%.
In the case of `COC(C)(C)c1ccc2c(c1)[C@H](O)C[C@H]1[C@](C)(C(=O)O)CCC[C@]21C`, the inhibition is reported as 70.4%.

Biological target: Sodium-dependent serotonin transporter (Rattus norvegicus, UniProt P31652)
Sequence (P31652 whole entry): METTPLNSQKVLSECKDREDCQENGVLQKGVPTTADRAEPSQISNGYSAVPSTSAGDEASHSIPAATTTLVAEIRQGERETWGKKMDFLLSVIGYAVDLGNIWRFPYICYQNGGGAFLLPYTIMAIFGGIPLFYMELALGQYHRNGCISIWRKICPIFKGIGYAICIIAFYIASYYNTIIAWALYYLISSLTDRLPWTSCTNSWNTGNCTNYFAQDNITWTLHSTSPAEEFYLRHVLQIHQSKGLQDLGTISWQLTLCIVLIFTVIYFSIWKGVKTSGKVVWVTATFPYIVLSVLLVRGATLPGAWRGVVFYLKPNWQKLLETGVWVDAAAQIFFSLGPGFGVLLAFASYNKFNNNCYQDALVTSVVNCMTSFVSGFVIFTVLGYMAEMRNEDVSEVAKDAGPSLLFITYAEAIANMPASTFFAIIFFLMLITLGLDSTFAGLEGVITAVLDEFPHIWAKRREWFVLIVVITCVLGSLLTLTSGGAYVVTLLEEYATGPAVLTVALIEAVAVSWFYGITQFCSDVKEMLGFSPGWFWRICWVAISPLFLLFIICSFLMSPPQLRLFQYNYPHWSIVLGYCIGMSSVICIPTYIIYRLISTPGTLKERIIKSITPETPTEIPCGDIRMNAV
Assay: Inhibition of [3H]5-HT reuptake at SERT in rat brain synaptosomes
Type: subcellular
For `CC(C)[C@@]1(O)C=C2[C@H](O)C[C@@H]3[C@](C)(CCC[C@@]3(C)C(=O)O)[C@H]2C[C@@H]1O` [AQUILARABIETIC ACID B], the IC50 was 3.2 µM.
